From PubChem BioAssay (NCI)
Values joined by “and” are separate entries in the source; they are usually repeats but may differ in a detail not shown here. Equal entries are not always repeated.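 Method: 48-hour compound exposure of cells in 96-well plates, five concentrations, linear interpolation of endpoints. TGI: concentration producing complete growth inhibition.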 Starred links: 1 amine or outer side, 2 acyl side, 3 side chain; linkers in the order of their positions; H or OH if unused. Positions of bridges follow the written chain, without caps; N, C: chain ends. Non-standard residues stand in square brackets, D forms with d. Residues, ends and D or L forms follow the SMILES beside them. Chains are numbered I, II in the order given. Actinocin(1to9) = Cc1c2oc3c(C)ccc(C(=O)[*:2])c3nc-2c(C(=O)[*:1])c(N)c1=O; NMeV = CN[CH](C(=O)O)C(C)C; Sar = CNCC(=O)O

Tests used:
Assay in all cases: NCI tumour cell line growth inhibition, 48 h
786-0 renal = system: 786-0 renal
EKVX NSCLC = system: EKVX NSCLC
M14 melanoma = system: M14 melanoma
MDA-MB-231 breast = system: MDA-MB-231 breast
MDA-N = system: MDA-N
MOLT-4 leukemia = system: MOLT-4 leukemia
NCI/ADR-RES ovarian = system: NCI/ADR-RES ovarian
PC-3 prostate = system: PC-3 prostate
RPMI-8226 leukemia = system: RPMI-8226 leukemia
SF-268 CNS = system: SF-268 CNS
SNB-75 CNS = system: SNB-75 CNS
UACC-62 melanoma = system: UACC-62 melanoma

Row | Structure (SMILES) | TGI (786-0 renal) | TGI (EKVX NSCLC) | TGI (M14 melanoma) | TGI (MDA-MB-231 breast) | TGI (MDA-N) | TGI (MOLT-4 leukemia) | TGI (NCI/ADR-RES ovarian) | TGI (PC-3 prostate) | TGI (RPMI-8226 leukemia) | TGI (SF-268 CNS) | TGI (SNB-75 CNS) | TGI (UACC-62 melanoma)
1 | Nc1c(C(=O)O)nnc2cc(Cl)c(Cl)cc12 | > 100 µM | > 100 µM | > 100 µM | > 100 µM | > 100 µM | > 100 µM | > 100 µM | > 100 µM | > 100 µM | > 100 µM | > 100 µM | > 100 µM
2 | COc1ccc(C2NC(=S)Nc3c2c(=O)oc2c3ccc3ccccc32)cc1 (stereo not drawn) | > 100 µM | > 100 µM | > 100 µM | > 100 µM | > 100 µM | > 100 µM | > 100 µM | > 100 µM | > 100 µM | > 100 µM | 96.4 µM | > 100 µM
3 | Cc1cc(C)n(CC(Cn2nc(C)cc2C)=C(/C(Cl)=C(/Cl)Nc2ccc([N+](=O)[O-])cc2)[N+](=O)[O-])n1 | 18.9 µM | 13.8 µM | 16.6 µM | 25.5 µM | 15.3 µM | 4.77 µM | > 32.8 µM | 12.7 µM | 5.12 µM | 19.8 µM | 14.3 µM | 15.4 µM
4 | COc1nc2[nH]ccc2c(=O)[nH]1 | – | > 100 µM | > 100 µM | – | – | > 100 µM | – | – | > 100 µM | > 100 µM | > 100 µM | –
5 | Cn1cnc([N+](=O)[O-])c1Sc1nc(N)nc2c1ncn2C1OC(CO)C(O)C1O (stereo not drawn) | > 100 µM | > 100 µM | > 100 µM | > 100 µM | > 100 µM | > 100 µM | > 100 µM | > 100 µM | > 95.5 µM | > 100 µM | > 84.9 µM | 22.7 µM
6 | CCC(C)C1NC(=O)C(NC(=O)c2c3nc4c(C(=O)NC5C(=O)NC(C(C)CC)C(=O)N6CCCC6C(=O)N(C)CC(=O)N(C)C(C(C)C)C(=O)OC5C)ccc(C)c4oc-3c(C)c(=O)c2N)C(C)OC(=O)C(C(C)C)N(C)C(=O)CN(C)C(=O)C2CCCN2C1=O (stereo not drawn) (I: TIP[Sar][NMeV] / II: TIP[Sar][NMeV]; ester I:1-I:C, II:1-II:C; linker I:N-II:N via Actinocin(1to9); configuration not given here) | 10.4 µM | 0.248 µM and 0.0692 µM | 0.0272 µM | 0.156 µM and 0.481 µM | – | 0.0144 µM | 2.63 µM | 0.13 µM and 0.212 µM | 0.0322 µM | 0.0586 µM | 0.0329 µM | 0.0105 µM
7 | CC(C)(C)OC(=O)n1c2ccccc2c2c(=O)nc(N3CCCCC3)sc21 | > 100 µM | > 100 µM | > 100 µM | > 100 µM | > 100 µM | > 100 µM | > 100 µM | > 100 µM | > 100 µM | > 100 µM | > 100 µM | > 100 µM
8 | O=C(CSc1nc2ccc([N+](=O)[O-])cc2s1)c1ccc2ccccc2c1 | > 100 µM | > 100 µM | > 100 µM | > 100 µM | > 100 µM | > 100 µM | > 100 µM | > 100 µM | > 100 µM | > 100 µM | > 100 µM | > 100 µM
9 | CN(C)c1ccc(C=Nc2ccc(Oc3ccc(Cl)cc3)c(Cl)c2)cc1 | – | 40.8 µM | 87.1 µM | 38.5 µM | 52.8 µM | 66.3 µM | 33.2 µM | 36.2 µM | 72.3 µM | 28.1 µM | 35.6 µM | 36.1 µM
10 | Nc1ncnc2c1sc1nc3ccccc3n12 | – | > 100 µM | > 100 µM | > 100 µM | – | > 78.7 µM | > 100 µM | > 100 µM | > 100 µM | > 100 µM | > 51.2 µM | > 100 µM
11 | Cc1ccccc1N=Nc1c(O)c(S(=O)(=O)O)cc2cc(S(=O)(=O)O)ccc12 | > 100 µM | > 100 µM | > 100 µM | > 100 µM | > 100 µM | > 100 µM | > 100 µM | > 100 µM | – | > 100 µM | > 100 µM | > 100 µM
12 | COc1cc2oc(=O)ccc2cc1C(=O)CC(C)C | > 100 µM | > 100 µM | > 100 µM | > 100 µM | > 100 µM | > 100 µM | > 100 µM | > 100 µM | > 100 µM | > 100 µM | > 100 µM | > 100 µM
13 | O=c1ccc2nc3cc(Br)ccc3sc-2c1 | – | > 100 µM | > 100 µM | – | – | > 100 µM | – | – | – | > 100 µM | > 100 µM | > 100 µM
14 | O=c1c2cc(I)ccc2nc(SCc2nncs2)n1Cc1ccccc1 | > 100 µM | 48.6 µM | > 100 µM | 76.7 µM | > 100 µM | > 100 µM | > 100 µM | > 100 µM | > 100 µM | > 100 µM | 74.9 µM | > 100 µM
15 | C[N+]1(CCC(=O)c2ccco2)CC2CCC(CC2)C1 (stereo not drawn) | > 100 µM | > 100 µM | > 100 µM | > 100 µM | > 100 µM | > 100 µM | > 100 µM | > 100 µM | > 100 µM | > 100 µM | > 100 µM | > 100 µM
16 | Cn1c(=O)[nH]c2nncnc2c1=O | – | 289 µM | – | – | – | > 625 µM | > 625 µM | – | 389 µM | > 625 µM | 117 µM | 146 µM
17 | O=c1[nH]c2nnc(COc3ccc(Cl)cc3Cl)n2nc1Cc1ccccc1 | 43.8 µM | > 100 µM | > 100 µM | > 100 µM | > 100 µM | > 100 µM | > 100 µM | > 100 µM | > 100 µM | > 100 µM | 38.8 µM | –
18 | Cc1c(N2C(=O)/C(=C/c3ccc(Cl)cc3)N=C2c2ccccc2)c(=O)n(-c2ccccc2)n1C | > 100 µM | 63.4 µM | > 100 µM | > 100 µM | 71.6 µM | > 100 µM | > 100 µM | > 100 µM | 42.9 µM | > 100 µM | 80.3 µM | 47.1 µM
